The results in this text go back to patent US9408796B2, “Cosmetic compositions for improving the appearance of skin” (Avon Products, Inc., priority 2013, dated 2016).

Assay [1] concerns Human dermal fibroblasts. Description: Collagen stimulation: procollagen type I C-peptide (PIP) EIA on conditioned medium. It is filed as cell-based. The settings on record: 0.0005% compound, 48-hour incubation, increase in collagen over the vehicle control. Here is the method:
(§1) Collagen. Human dermal fibroblasts (Cascade Biologics, Portland, Oreg.) were plated at in 96-well culture plates in supplemented medium (DMEM, 10% Fetal Bovine Serum, 1% Penicillin/Streptomycin and 1% L-Glutamine) overnight in humidified atmosphere of 10% CO2 at 37° C. The following day, the medium was replaced with fresh medium (DMEM, 1% Penicillin/Streptomycin and 1% L-Glutamine) and the actives dissolved in a vehicle were added to the wells in triplicate. Vehicle was used as control. Following 48-hour incubation, the plates were removed from the incubator and the medium from each well was collected for the procollagen assay.
Collage production was measured using procollagen type I C-peptide (PIP) EIA kit (Takara Bio, Inc., Japan). Briefly, the conditioned medium was diluted 1:10 in Sample Diluent. 20 μl of diluted conditioned medium and 100 μl of antibody-POD conjugate solution were added to the wells of the Takara ELISA plate. The ELISA plate was incubated at 37° C. for 3 hours before the wells were washed four times with 400 μl of 1×PBS. At the end of wash, 100 μl of substrate solution (supplied with kit) was added to the wells and incubated at room temperature for 15 minutes. […] The absorbance was measured on a spectrophotometer at 450 nm wavelength. The amount of procollagen peptide in the conditioned medium was calculated from the standard curve. […]

Assay [2] has as its system Human dermal fibroblasts. Kind of assay: Hyaluronic acid stimulation: hyaluronic acid test kit on conditioned medium. It is filed as cell-based. The settings on record: 0.0005% compound, 48-hour incubation, increase in hyaluronic acid over the vehicle control. Here is the method:
as §1, with “Human” for “Collagen. Human”, “hyaluronic acid” for “procollagen”
Hyaluronic acid production was measured using hyaluronic acid test kit (Corgenix, Inc. CO, USA). Briefly, 100 μl diluted conditioned medium was added to appropriate microwells and was incubated for 60 minutes at room temperature. After the incubation is complete, the conditioned medium was removed and 100 μl HRP-conjugated HABP solution was added to each well and incubated for 30 minutes at room temperature. Wash each well 4 times with PBS after the incubation is complete. Add 100 μl One-component Substrate Solution to each well and incubate for 30 minutes at room temperature. Add 100 μl Stopping Solution to stop the enzyme reaction and read the O.D. of each well at 450 nm. The amount of hyaluronic acid in the conditioned medium was calculated from the standard curve. […]

As for `COc1ccccc1CNc1nc(-c2ccc(O)c(C(N)=O)c2)cs1` [Formula I(c)], in assay [1], the Collagen stimulation result is “+ (The “+” describes a stimulation of between 21-40%)”.

On to `COc1cccc(-c2nc(-c3ccc(O)c(C(N)=O)c3)cs2)c1OC` [Formula I(d)], for which the Collagen stimulation entry in assay [1] is “+ (The “+” describes a stimulation of between 21-40%)”. Moreover, the Hyaluronic acid stimulation result in assay [2] is listed as “+ (The “+” describes a stimulation of between 21-40%)”.
